Test results reported in PubChem BioAssay (NCI).
“And” between values parts separate entries of the source, which are not always exact repeats. Equal values may be shown once.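 These data come from cells grown in 96-well plates and exposed to compound for 48 hours at five concentrations. Abbreviation: GI50, concentration required for 50% inhibition of growth. TGI is the concentration that stops growth completely.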

What was measured:
Experiment in all cases: NCI-60 cell line screen, 48 h
[1] = system: DLD-1 colon
[2] = system: DMS 114 small cell lung
[3] = system: XF 498 CNS
[4] = system: DMS 273 small cell lung
[5] = system: SNB-78 CNS
[6] = system: LXFL 529 NSCLC
[7] = system: T-47D breast
[8] = system: DU-145 prostate

| Compound | TGI [1] | TGI [2] | TGI [3] | TGI [4] | TGI [5] | TGI [6] | GI50 [7] | TGI [7] | GI50 [8] | TGI [8] | other results |
| --- | --- | --- | --- | --- | --- | --- | --- | --- | --- | --- | --- |
| Cn1cc(C(=O)C[n+]2ccccc2)c2ccccc21 | > 100 µM | > 100 µM | > 100 µM | > 100 µM |  |  |  |  |  |  |  |
| COc1ccccc1NC(=O)CC(=O)N/N=C/c1ccc(N(CCC#N)S(=O)(=O)c2ccccc2)cc1 | > 100 µM | > 100 µM | > 100 µM |  | > 100 µM | > 100 µM |  |  |  |  |  |
| CC(C)(c1ccccc1)c1ccc(OC#N)cc1 | > 62.5 µM | > 53.9 µM | > 100 µM | 30.7 µM | > 100 µM | > 100 µM |  |  |  |  |  |
| O=C(/C=C/c1ccc(C(F)(F)F)cc1)c1ccc(Nc2nc(NCCO)nc(Nc3ccc(Cl)cc3)n2)cc1 |  |  |  |  |  |  | 3.4 µM | 26.6 µM | 6.08 µM | 18.7 µM |  |
| COc1cc(C2CC(c3ccc(Nc4ccnc5cc(Cl)ccc45)cc3)=NN2c2ccc(Cl)cc2)cc(OC)c1OC (stereo unspecified) |  |  |  |  |  |  | 2.13 µM | > 100 µM | 8.08 µM | > 100 µM |  |
| Cc1cn(-c2cc(NC(=O)c3ccc(C)c(Nc4nccc(-c5cccnc5)n4)c3)cc(C(F)(F)F)c2)cn1 |  |  |  |  |  |  | > 10 µM and 6.71 µM | > 10 µM and 32.3 µM | 3.25 µM and 2.34 µM | > 10 µM and 4.47 µM |  |
| C=C(c1ccccc1)[C@@]1(O)CC[C@@H]1N(CC#N)Cc1ccccc1 | 36.4 µM | 34.3 µM |  | 39.7 µM | > 85.2 µM | 29.5 µM |  | 38.2 µM |  | > 100 µM |  |
| O=C(NC12CC3CC(CC(C3)C1)C2)C(=O)c1c[nH]c2ccccc12 |  | 36 µM | 25.7 µM | 29.6 µM | 40.3 µM | 26.5 µM |  |  |  |  |  |
| N#CC1(C#N)C(C#N)(C#N)C12CCCCCC2 | 10.3 µM | 43.2 µM |  | 52.4 µM | 38.5 µM | 29.8 µM |  |  |  |  |  |
| COc1cccc(/C=N/C(/N=C/c2cccc(OC)c2O)c2cccc(OC)c2O)c1O |  |  |  |  |  |  |  | 63.9 µM |  | 78.7 µM |  |
| CC12CCC(Br)C(C)(C)C1CC=C1C(=O)OCC1O2 (stereo unspecified) |  |  |  |  |  |  |  | 45 µM |  | 25.7 µM |  |
| O=C(OC[C@H]1O[C@H](OC(=O)c2cc(O)c(O)c(OC(=O)c3cc(O)c(O)c(O)c3)c2)[C@H](OC(=O)c2cc(O)c(O)c(OC(=O)c3cc(O)c(O)c(O)c3)c2)[C@@H](OC(=O)c2cc(O)c(O)c(OC(=O)c3cc(O)c(O)c(O)c3)c2)[C@@H]1OC(=O)c1cc(O)c(O)c(OC(=O)c2cc(O)c(O)c(O)c2)c1)c1cc(O)c(O)c(OC(=O)c2cc(O)c(O)c(O)c2)c1 |  |  |  |  |  |  | 2.85 µM | 16.6 µM | 3.57 µM | > 25 µM |  |
| C=C1C(=O)O[C@H]2[C@H]1CC/C(Cn1cc(-c3ccccc3C(F)(F)F)nn1)=C\CC[C@@]1(C)O[C@@H]21 |  |  |  |  |  |  | 1.7 µM | 4.71 µM | 1.42 µM | 2.78 µM |  |
| Cn1cc(-c2ccc(-c3ccc(C4=NC5(CC5)C(=O)N4C[C@@H]4CCN(C(=O)C5CC5)C4)cc3)cc2)cn1 |  |  |  |  |  |  | 13.6 µM | > 100 µM |  |  |  |
| COC(=O)[C@@H](C)C[C@H](Cc1ccccc1)NC(=O)c1csc([C@@H](C[C@H](C(C)C)N(C)C(=O)[C@@H](NC(=O)[C@H]2CCCCN2C)C2CC2)OC(C)=O)n1 |  |  |  |  |  |  |  |  | 0.000311 µM |  |  |
| O=C1C(=O)c2cccnc2-c2ncccc21 |  |  |  |  |  |  | 0.205 µM | 0.461 µM | 0.239 µM | 1.28 µM |  |

| Compound | TGI [1] | TGI [2] | TGI [3] | TGI [4] | TGI [5] | TGI [6] | GI50 [7] | TGI [7] | GI50 [8] | TGI [8] | other results |
| --- | --- | --- | --- | --- | --- | --- | --- | --- | --- | --- | --- |
| Cc1cc(N2CCOCC2)cc2[nH]c(-c3c(NC[C@@H](O)c4cccc(Cl)c4)cc[nH]c3=O)nc12 |  |  |  |  |  |  | 4.17 µM | 37.8 µM | 1.42 µM | 14.7 µM |  |
| COc1cccc(NC(=O)/C(Cc2nc3ccccc3nc2C)=N/NC(=O)C[n+]2ccccc2)c1 | > 100 µM | > 100 µM | > 100 µM | > 100 µM | > 100 µM | > 100 µM |  |  |  |  |  |
| Cc1ccc(O)c(NC(=O)c2ccc(CNc3ccnc(C(F)(F)F)c3)cc2)c1 |  |  |  |  |  |  | 1.74 µM | 17.7 µM | 12.8 µM | 39.4 µM |  |
| COC(=O)/C=C/c1cc2c(cc1-c1c(C(=O)O)cc(OC)c(OC)c1OC)OCO2 |  |  |  |  |  |  |  | > 10 µM |  | > 10 µM |  |
| COC(=O)CC[C@H](Cc1ccccc1)NC(=O)c1csc([C@@H](C[C@H](C(C)C)N(C)C(=O)[C@@H](NC(=O)[C@H]2CCCCN2C)C(C)C)OC(C)=O)n1 |  |  |  |  |  |  |  |  | < 0.0025 µM | > 25 µM |  |
| COc1ccc2c(c1)C(=O)c1c-2n(CCCI)c(=O)c2cc([N+](=O)[O-])ccc12 |  |  |  |  |  |  | 0.173 µM and 0.163 µM | 1.65 µM and 8.64 µM | 0.0541 µM and 0.0341 µM | 0.172 µM and 0.811 µM |  |
| O=C1c2ccccc2-c2c1c1ccccc1c(=O)n2CCCn1ccnc1 |  |  |  |  |  |  | 3.28 µM | > 100 µM | 1.41 µM | 6.94 µM |  |
| CC(C)OP(=O)(NC(=S)c1ccccc1)OC(C)C | > 100 µM | > 100 µM | > 100 µM | > 100 µM | > 100 µM | > 100 µM |  |  |  |  |  |
| CCNC(=O)O[C@H]1CN[C@H](C#Cc2cc3ncnc(Nc4ccc(OCc5cccc(F)c5)c(Cl)c4)c3s2)C1 |  |  |  |  |  |  | 1.49 µM | > 25 µM | 4.72 µM | > 25 µM |  |
| N#CC1CCCCCCCCCCC(=O)N(CCCl)C1=O (stereo unspecified) | > 100 µM | > 100 µM | > 100 µM | > 100 µM | > 100 µM | > 100 µM |  |  |  |  |  |
| CC(C)CC(NC(=O)OC(C)(C)C)C(=O)Nc1ccc(Nc2nc(F)nc(-c3c4ccccc4cn3C)n2)cc1 (stereo unspecified) | > 58 µM | > 72.4 µM | > 100 µM | > 100 µM | > 68 µM | > 100 µM |  | > 100 µM |  | 39.7 µM |  |
| CN(C)CCCNC(=O)c1cc(NC(=O)c2cc(NC(=O)CCNS(=O)(=O)c3ccc4c(c3)C(=O)c3ccccc3C4=O)cn2C)cn1C |  |  |  |  |  |  | > 100 µM | > 100 µM |  |  |  |
| S=P(N1CC1)(N1CC1)N1CC1 | 77.2 µM and 682 µM | 36.1 µM and 249 µM | 35.8 µM and 230 µM | 37.1 µM and 290 µM | 960 µM | 40 µM and 314 µM | 45.5 µM | 950 µM and 913 µM | 11.9 µM | 520 µM and 97.8 µM | GI50 [1]: 33.2 µM; GI50 [5]: 46.1 µM; GI50 [2]: 5.78 µM; GI50 [3]: 13.2 µM; GI50 [6]: 21.9 µM; GI50 [4]: 2.76 µM |
| C=CCC1C(=O)CC2(C)CC(=O)C(CC=C)C12C (stereo unspecified) | > 100 µM | > 100 µM | > 100 µM | > 100 µM | > 100 µM | > 100 µM |  |  |  |  |  |
| O=C1CCc2c(sc3[nH]c(=S)n(Cc4ccc(Cl)cc4)c(=O)c23)C1 |  |  |  |  |  |  | 0.377 µM | 3.59 µM | 2.47 µM | > 100 µM |  |
